Columns and labels:
[1] = system: Black Cutworm (Agrotis ipsilon); assay: whole plant or invertebrate; format: in vivo; details: 72 h, 5 ppm a.i./soil (w/w), second-instar larvae, 3 days after infestation, read-out: mortality in comparison with untreated controls
[2] = system: western corn rootworm (Chrysomelidae: Diabrotica virgifera virgifera); assay: Plant emergence, shoot height and root mass, corn seed treatment against western corn rootworm (B.2.2); format: in vivo; details: for % Control (Based on root mass relative to infested and uninfested control) / % Control (Based on shoot height relative to infested and uninfested control) / Mean Root Mass / Mean Shoot Height: 7 days after infestation
Experimental: B.2.2 Plant Emergence, Shoot Height and Root Mass in Treatment Against Western Corn Rootworm (Chrysomelidae: Diabrotica virgifera virgifera). The compounds according to the invention, in formulated form, and other diamide compounds (chlorantraniliprole: Altacor® and Coragen®) were tested for activity against western corn rootworm. Pots were filled with soil mixture (1:1 loamy sand:sand) and watered prior to treatment and planting. Formulations were diluted in distilled water and then applied to 20 g corn seed in a volume of 188 μl in a Hege 11 liquid seed treater and spun for 30 s. One seed was planted per pot 1-3 days after treatment. Five replicates (pots) were prepared for each treatment. Pots were arranged in a randomized complete block design in the greenhouse and top watered daily. At 5-6 days after planting (DAP), 12 western corn rootworm larvae (2nd instar) were infested in each pot. After infestation, pots were maintained in a growth chamber (26° C., 10 hours light:14 hours dark) and bottom-watered as needed. Plant emergence and shoot phytotoxicity were evaluated 5 DAP. Shoot height and fresh root mass were evaluated 7 days after infestation (DAI).

[3] = system: Western Corn Rootworm (Diabrotica virgifera virgifera); assay: whole plant or invertebrate; format: in vivo; details: 72 h, 50 ppm a.i./soil (w/w), second-instar larvae, 3 days after infestation, read-out: mortality in comparison with untreated controls
[4] = system: seedcorn maggot (Anthomyiidae: Delia platura); assay: Root length of cucumber in treatment against seedcorn maggot (B.2.1); details: 9 days after treatment, 7 days after infestation; for % Control (Relative to infested and uninfested solvent blank): cucumber root length; for Mean Root Length: cucumber
[5] = Table EXP-B.2.2-1, 0.5 g ai/kg seed, 13 days after planting
[6] = Table EXP-B.2.2-1, 1.0 g ai/kg seed, 13 days after planting
[7] = Table EXP-B.2.2-1, corn seed treatment, 0.5 g ai/kg seed
[8] = Table EXP-B.2.2-1, corn seed treatment, 1.0 g ai/kg seed
[9] = Table EXP-B.2.2-2, 0.5 g ai/kg seed, 12 days after planting
[10] = Table EXP-B.2.2-2, 1.0 g ai/kg seed, 12 days after planting
[11] = Table EXP-B.2.2-2, corn seed treatment, 0.5 g ai/kg seed
[12] = Table EXP-B.2.2-2, corn seed treatment, 1.0 g ai/kg seed
[13] = Table EXP-B.2.2-2, 1.5 g ai/kg seed, 12 days after planting

Structure (SMILES)	mortality at 5 ppm [1] [%]	% Control (Based on root mass relative to infested and uninfested control) [2, 5] [%]	% Control (Based on shoot height relative to infested and uninfested control) [2, 5] [%]	Mean Root Mass [2, 5] [g]	Mean Shoot Height [2, 5] [cm]	% Control (Based on root mass relative to infested and uninfested control) [2, 6] [%]	% Control (Based on shoot height relative to infested and uninfested control) [2, 6] [%]	Mean Root Mass [2, 6] [g]	Mean Shoot Height [2, 6] [cm]	Plant Emergence (%) 5 days after planting [2, 7] [%]	Plant Emergence (%) 5 days after planting [2, 8] [%]	% Control (Based on root mass relative to infested and uninfested control) [2, 9] [%]	% Control (Based on shoot height relative to infested and uninfested control) [2, 9] [%]	Mean Root Mass [2, 9] [g]	Mean Shoot Height [2, 9] [cm]	% Control (Based on root mass relative to infested and uninfested control) [2, 10] [%]	Plant Emergence (%) 5 days after planting [2, 11] [%]	mortality at 50 ppm [3] [%]	% Control (Relative to infested and uninfested solvent blank) ([4]; rate 1 ppm) [%]	Mean Root Length ([4]; rate 1 ppm) [cm]	other results
CCS(CC)=NC(=O)c1cc(Cl)cc(C)c1NC(=O)c1cc(C(F)(F)F)nn1-c1ncccc1Cl [Compound I-11, 2-(3-chloro-2-pyridyl)-N-[2-methyl-4-chloro-6-[(diethyl-λ^4-sulfanylidene)carbamoyl]phenyl]-5-(trifluoromethyl)pyrazole-3-carboxamide]	> 70	100	36	0.680	26.7	100	100	0.678	33.8	100	100	12	49	0.490	27.3	48	100	> 70			% Control (Based on shoot height relative to infested and uninfested control) [2, 10]: 100%; Mean Root Mass [2, 10]: 0.631 g; Mean Shoot Height [2, 10]: 33.8 cm; Plant Emergence (%) 5 days after planting [2, 12]: 100%
CC(C)S(=NC(=O)c1cc(Cl)cc(Cl)c1NC(=O)c1cc(C(F)(F)F)nn1-c1ncccc1Cl)C(C)C [Compound I-26, 2-(3-chloro-2-pyridyl)-N-[2,4-dichloro-6-[(bis-2-propyl-λ^4-sulfanylidene)carbamoyl]phenyl]-5-(trifluoromethyl)pyrazole-3-carboxamide]	> 70																	> 70			
CNC(=O)c1cc(Cl)cc(C)c1NC(=O)c1cc(Br)nn1-c1ncccc1Cl [chlorantraniliprole]																			49	8.4	% Control (Relative to infested and uninfested solvent blank) ([4]; rate 10 ppm): 63%; Mean Root Length ([4]; rate 10 ppm): 9.0 cm
CCS(CC)=NC(=O)c1cc(Cl)cc(Cl)c1NC(=O)c1cc(C(F)(F)F)nn1-c1ncccc1Cl [Compound I-16, 2-(3-chloro-2-pyridyl)-N-[2,4-dichloro-6-[(diethyl-λ^4-sulfanylidene)carbamoyl]phenyl]-5-(trifluoromethyl)pyrazole-3-carboxamide]	> 70	37	76	0.541	30.2	40	58	0.547	28.6	100	100	38	100	0.590	35.3	68	100	> 70	100	11.0	% Control (Based on shoot height relative to infested and uninfested control) [2, 10]: 83%; Mean Root Mass [2, 10]: 0.705 g; Mean Shoot Height [2, 10]: 31.2 cm; Plant Emergence (%) 5 days after planting [2, 12]: 100%
CNC(=O)c1cc(C#N)cc(C)c1NC(=O)c1cc(Br)nn1-c1ncccc1Cl [cyantraniliprole]																			19	7.1	% Control (Relative to infested and uninfested solvent blank) ([4]; rate 10 ppm): 93%; Mean Root Length ([4]; rate 10 ppm): 10.3 cm
Cc1cc(Cl)cc(C(=O)N=S(C(C)C)C(C)C)c1NC(=O)c1cc(C(F)(F)F)nn1-c1ncccc1Cl [Compound I-21, 2-(3-chloro-2-pyridyl)-N-[2-methyl-4-chloro-6-[(bis-2-propyl-λ^4-sulfanylidene)carbamoyl]phenyl]-5-(trifluoromethyl)pyrazole-3-carboxamide]	> 70	100	49	0.688	27.8	100	69	0.701	29.6	100	100	33	86	0.570	31.6		100	> 70			% Control (Based on root mass relative to infested and uninfested control) [2, 13]: 40%; % Control (Based on shoot height relative to infested and uninfested control) [2, 13]: 83%; Mean Root Mass [2, 13]: 0.598 g; Mean Shoot Height [2, 13]: 31.2 cm; Plant Emergence (%) 5 days after planting ([2]; Table EXP-B.2.2-2, corn seed treatment, 1.5 g ai/kg seed): 100%

Source: US20150250172A1, “USE OF ANTHRANILAMIDE COMPOUNDS IN SOIL AND SEED TREATMENT APPLICATION METHODS” (BASF SE, priority 2012, published 2015)
